Experiments:
Test in all cases: reduction to DABS-Met, […] min
Assay type in all cases: biochemical
Conditions in all cases: no activator
hMsrB3 = biological target: T1, hMsrB3 (Homo sapiens, UniProt Q8IXL7)
T1 sequence (Q8IXL7 1-192 limits assumed): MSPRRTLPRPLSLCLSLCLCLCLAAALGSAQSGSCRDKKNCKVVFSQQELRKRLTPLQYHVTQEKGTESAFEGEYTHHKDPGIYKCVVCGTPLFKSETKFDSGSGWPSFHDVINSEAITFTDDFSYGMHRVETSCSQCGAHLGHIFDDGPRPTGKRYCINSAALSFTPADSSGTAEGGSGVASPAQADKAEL

hMsrB2 = hMsrB2 (Homo sapiens, UniProt Q9Y3D2)
eMsrB = biological target: T2, eMsrB (Escherichia coli, UniProt P0A746)
T2 sequence (P0A746 2-137): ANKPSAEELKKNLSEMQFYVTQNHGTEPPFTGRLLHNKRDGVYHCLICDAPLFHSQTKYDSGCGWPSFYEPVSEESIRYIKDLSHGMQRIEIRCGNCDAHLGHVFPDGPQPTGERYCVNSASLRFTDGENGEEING

hMsrA (myristoylated) = biological target: T3, hMsrA (myristoylated) (Homo sapiens, UniProt Q9UJ68)
T3 sequence (Q9UJ68 23-235): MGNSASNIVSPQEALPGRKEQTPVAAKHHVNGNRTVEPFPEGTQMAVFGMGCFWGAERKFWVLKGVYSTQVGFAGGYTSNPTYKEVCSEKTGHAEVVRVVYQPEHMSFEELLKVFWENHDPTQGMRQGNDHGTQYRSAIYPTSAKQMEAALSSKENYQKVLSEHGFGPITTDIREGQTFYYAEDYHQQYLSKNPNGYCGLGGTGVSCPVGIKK

bMsrA = biological target: T4, bMsrA (Bos taurus, UniProt P54149)
T4 sequence (P54149 1-233 limits assumed): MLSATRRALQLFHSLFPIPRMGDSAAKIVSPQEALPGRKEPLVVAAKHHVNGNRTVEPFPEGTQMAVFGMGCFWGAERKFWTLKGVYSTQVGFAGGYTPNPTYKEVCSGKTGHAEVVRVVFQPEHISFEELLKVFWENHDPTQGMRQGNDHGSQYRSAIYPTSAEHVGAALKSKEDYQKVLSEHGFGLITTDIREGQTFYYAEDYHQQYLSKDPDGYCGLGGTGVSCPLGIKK

eMsrA = biological target: T5, eMsrA (Escherichia coli, UniProt P0A744)
T5 sequence (P0A744 2-212): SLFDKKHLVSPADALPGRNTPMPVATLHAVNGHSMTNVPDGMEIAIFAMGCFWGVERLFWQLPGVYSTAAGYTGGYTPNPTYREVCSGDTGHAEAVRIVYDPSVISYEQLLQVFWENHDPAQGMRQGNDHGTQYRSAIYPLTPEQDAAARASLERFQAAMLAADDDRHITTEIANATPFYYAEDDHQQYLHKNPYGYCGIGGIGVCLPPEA

hMsrA = biological target: T6, hMsrA (Homo sapiens, UniProt Q9UJ68)
T6 sequence (Q9UJ68 23-235): T3 sequence (Q9UJ68 23-235)

Sequence of hMsrB2 (Q9Y3D2 whole entry): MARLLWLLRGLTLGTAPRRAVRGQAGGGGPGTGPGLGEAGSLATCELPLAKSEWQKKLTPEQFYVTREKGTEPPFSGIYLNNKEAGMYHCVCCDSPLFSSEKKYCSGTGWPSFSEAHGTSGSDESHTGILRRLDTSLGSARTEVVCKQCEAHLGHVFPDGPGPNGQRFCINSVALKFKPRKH

SMILES | reduction to DABS-Met, 30 min (hMsrB3) | reduction to DABS-Met, 30 min (hMsrB2) | reduction to DABS-Met, 30 min (eMsrB) | reduction to DABS-Met, 30 min (hMsrA (myristoylated)) | reduction to DABS-Met, 30 min (bMsrA) | reduction to DABS-Met, 30 min (eMsrA) | reduction to DABS-Met, 30 min (hMsrA)
CN(C)c1ccc(N=Nc2ccc(S(=O)(=O)N[C@@H](CC[S@@+](C)[O-])C(=O)O)cc2)cc1 [DABS-Met-R-(o)] | either DABS-Met-S-(o) or DABS-Met-R-(o), to measure the activity of MsrA and MsrB, respectively | either DABS-Met-S-(o) or DABS-Met-R-(o), to measure the activity of MsrA and MsrB, respectively | either DABS-Met-S-(o) or DABS-Met-R-(o), to measure the activity of MsrA and MsrB, respectively |  |  |  | 
CN(C)c1ccc(N=Nc2ccc(S(=O)(=O)N[C@@H](CC[S@+](C)[O-])C(=O)O)cc2)cc1 [DABS-Met-S-(o)] |  |  |  | uses a synthetic substrate, either DABS-Met-S-(o) or DABS-Met-R-(o), to measure the activity of MsrA | uses a synthetic substrate, either DABS-Met-S-(o) or DABS-Met-R-(o), to measure the activity of MsrA | uses a synthetic substrate, either DABS-Met-S-(o) or DABS-Met-R-(o), to measure the activity of MsrA | uses a synthetic substrate, either DABS-Met-S-(o) or DABS-Met-R-(o), to measure the activity of MsrA

— paper PMC4724238 (Biochemical and biophysical research communications, 2015)
